For orientation: inhibition means the drop in the measured response relative to a control, in per cent. The term LD50 denotes the dose at which mortality reaches 50%. High values mean a less toxic substance, low ones a more toxic substance.

Bounds are passed on as bounds.

For series [1], the system named is Fusarium culmorum. Put plainly: Protection of seedlings against plant pathogenic seed fungus by seed treatment (wheat). The series is classed as in vivo. As to conditions: wheat seed infested with Fusarium culmorum; 3 g composition (10% by weight in kaolin) per kg of seed; after three weeks, 8°-12° C.; untreated 67. Here is the method: Test with respect to the protection of seedlings against a plant pathogenic seed fungus, namely Fusarium culmorum, by means of a seed treatment.
Wheat seed, infested with Fusarium culmorum, is treated with the substance to be tested in the form of a composi tion in a quantity of 3 g per kg of seed. The composition is obtained by pulverising the substance to be tested and then intimately mixing with kaolin in a concentration of 10% by weight. The seed thus treated is sown in a tray containing soil which is placed in a Wisconsin tank with a bottom temperature of 8°-12° C. After three weeks the number of emerged and healthy plants is determined. The emergence of healthy plants from untreated seed serves as control. For comparison, the known substances 2-methylsulphinyl-4-methyl-5-nitrothiazole (a), 2-methylsulphinyl-3-nitrothiophene (b) and 2-ethylsulphinyl-3-nitro-5-acetylthiophene (c) mentioned hereinbefore are also tested. In the examples, the numbers of the compounds refer to the specification.

For the next series, the system named is Pythium spp. The experiment in a line: Protection of seedlings against plant-pathogenic soil fungus by seed treatment (beet). The series is classed as in vivo. As to conditions: after 3 weeks, 18°-22° C., untreated 72. On the procedure: Test with respect to the protection of seedlings against a plant-pathogenicsoil fungus, namely Pythium spp., by means of a seed treatment.
The compounds to be tested are processed to compositions by pulverising them and then mixing them intimately with kaolin in the desired concentration (see Table B). Beet seed is treated with these compositions in a quantity of 6 g of composition per kg of seed and then sown in trays with soil which was seriously infested with Pythium spp. After 3 weeks in a glass-house at 18°-22° C. and a relative humidity of 70-100%, the percentage of non-emerged and diseased seedlings (damping-off) is determined. The results are recorded in Table B. For comparison, the known substance 2-methylsulphinyl-4-methyl-5-nitrothiazole(a) is also tested.

For series [2], the system named is Fusarium culmorum. The experiment in a line: In vitro test on activity against Fusarium culmorum. The series is classed as cell-based. The following applies: read-out: growth inhibition of the fungus.
For the next series, the system named is Leptosphaeria nodorum. The experiment in a line: In vitro test on activity against Leptosphaeria nodorum. Type of series: cell-based. As to conditions: Parastagonospora nodorum, read-out: growth inhibition of the fungus. On the procedure:
(§1) The compound to be tested is processed in a culture medium consisting of 1% by weight of glucose, 0.2% by weight of a yeast extract (marmite), 0.5% by weight of a protein (pepton), 2.5% by weight of agar-agar, and 95.8% by weight of water, in petri dishes in concentrations of 3 and 10 ppm. The petri dishes are inoculated with the plant-pathogenic fungus Pyrenophora graminea and then kept at a temperature of 20° C. After 48 hours the growth-inhibiting activity of the compounds is determined visually. For comparison, the known substance (b) (see EXAMPLE XV) is also tested.
Compounds according to the invention are tested on i Leptosphaeria nodorum in the same manner as described in EXAMPLE XIX.

For a further series, the system named is Pythium splendens. The experiment in a line: In vitro test on activity against Pythium splendens. Type of series: cell-based. As to conditions: Globisporangium splendens, read-out: growth inhibition of the fungus.
A further series relates to Rhizoctonia solani. The experiment in a line: In vitro test on activity against Rhizoctonia solani. The series is classed as cell-based. The following applies: read-out: growth inhibition of the fungus. Here is the method:
The compound to be tested is processed in a culture medium consisting of 1% by weight of glucose, 0.2% by weight of a yeast extract (marmite), 0.5% by weight of a protein (pepton), 2.5% by weight of agar-agar, and 95.8% by weight of water, […] The petri dishes are inoculated with the plant-pathogenic fungus Pyrenophora graminea and then kept at a temperature of 20° C. After 48 hours the growth-inhibiting activity of the compounds is determined visually. For comparison, the known substance (b) (see EXAMPLE XV) is also tested.
Compounds according to the invention are tested on Rhizoctonia solani in the same manner as described in EXAMPLE XIX.

Another series deals with Pyrenophora graminea. Put plainly: In vitro test on activity against Pyrenophora graminea. Type of series: cell-based. The following applies: 48 hours, 20° C., read-out: % growth inhibition of the fungus. On the procedure:
In vitro test on activity against Pyrenophora graminea.
as §1

A short description of series [3]: Acute oral toxicity (lethal dose) in male mice. The following applies: mouse, in vivo, acute mortality, mg/kg of body weight. On the procedure: Toxicity with respect to warm-blooded living beings.
The LD50 is determined by orally administering the substance to be tested to male mice and determining the acute mortality. In Table C below, the LD50 is recorded in mg/kg of body weight.
For comparison, the known compound (b) (see EXAMPLE XV) is also tested.

Where [4] appears, read: 600 mg of active substance per kg of seed.
The mark [5] stands for this setting: 1200 mg of active substance per kg of seed.

Regarding `CC[S+]([O-])c1sc2cc([N+](=O)[O-])ccc2c1C#N` (stereo not drawn) [(27), 2-ethylsulphinyl-3-cyano-6-nitro-benzothiophene], the “Percentage of emerged, healthy plants” value in the series on Fusarium culmorum [1] worked out at 96%. The percentage damping-off stood at 4% in the series with Pythium spp. (setting [4]) and 2% with Pythium spp. (setting [5]). Moreover, the inhibition at 30 ppm was ≥ 75% in the series on Fusarium culmorum [2], ≥ 85% in the series on Leptosphaeria nodorum and ≥ 75% in the series with Rhizoctonia solani. Also, the inhibition at 10 ppm in the series on Pythium splendens was ≥ 95%.
Consider `CSC(=C(C#N)c1ccc(Cl)c(Cl)c1)[S+](C)[O-]` (stereo not drawn) [(15), α-cyano-β-merhylsulphinyl-β-methylthio-3,4-dichloro-styrene], for which the inhibition at 30 ppm is ≥ 85% with Leptosphaeria nodorum and ≥ 75% in the series with Rhizoctonia solani. Further, in the series with Pythium splendens, the inhibition at 10 ppm is ≥ 95%.
Turning to `CC[S+]([O-])c1sc(C(C)=O)c(Cl)c1C#N` (stereo not drawn) [(5), 2-ethylsulphinyl-3-cyano-4-chloro-5-acetylthiophene], the “Percentage of emerged, healthy plants” value with Fusarium culmorum [1] is on record as 85%. Moreover, the percentage damping-off stood at 21% with Pythium spp. (setting [4]) and 17% in the series with Pythium spp. (setting [5]). The inhibition at 3 ppm with Pyrenophora graminea turned out to be 54%. The inhibition at 10 ppm with Pyrenophora graminea is 89%; with Pythium splendens, ≥ 95%. Also, the inhibition at 30 ppm was ≥ 75% in the series on Fusarium culmorum [2] and ≥ 85% in the series on Leptosphaeria nodorum.
`CCCCCCCC[S+]([O-])c1sc(C#N)c(Cl)c1C#N` (stereo not drawn) [(36), 2-n-octylsulphinyl-3,5-dicyano-4-chlorothiophene]: the inhibition at 30 ppm in the series on Fusarium culmorum [2] was ≥ 75%; with Leptosphaeria nodorum, ≥ 85%; in the series on Rhizoctonia solani, ≥ 75%. Also, in the series on Pythium splendens, the inhibition at 10 ppm is ≥ 95%.
Take `CC[S+]([O-])c1sc(C#N)cc1C#N` (stereo not drawn) [(8), 2-ethylsulphinyl-3,5-dicyanothiophene]: in the series with Fusarium culmorum [1], the “Percentage of emerged, healthy plants” value is on record as 92%. The percentage damping-off came out at 16% with Pythium spp. (setting [4]) and 12% in the series on Pythium spp. (setting [5]). This molecule also had a 50% lethal dose (LD50) in series [3] of 119 mg/kg. The inhibition at 3 ppm with Pyrenophora graminea was 49%. The inhibition at 10 ppm in the series on Pyrenophora graminea was 72%; in the series on Pythium splendens it was ≥ 95%.
On to `CCCCCC[S+]([O-])c1sc(C#N)c(Cl)c1C#N` (stereo not drawn) [(34), 2-n-hexylsulphinyl-3,5-dicyano-4-chlorothiophene], for which the figures for the inhibition at 30 ppm in the series with Fusarium culmorum [2], with Leptosphaeria nodorum and in the series with Rhizoctonia solani were ≥ 75%, ≥ 85% and ≥ 75%, respectively. In addition, the inhibition at 10 ppm in the series with Pythium splendens is ≥ 95%.
Consider `C[S+]([O-])c1sc(C#N)c(Sc2ccccc2)c1C#N` (stereo not drawn) [(85), 2-methylsulphinyl-3,5-dicyano-4-phenylthio-thiophene], for which the figures for the inhibition at 10 ppm in the series on Pyrenophora graminea and in the series on Pythium splendens were 73% and ≥ 95%, respectively. The inhibition at 30 ppm is ≥ 75% with Fusarium culmorum [2], ≥ 85% with Leptosphaeria nodorum and ≥ 75% in the series on Rhizoctonia solani.
Consider `C[S+]([O-])c1sc(C(=O)c2ccc(Cl)cc2)cc1C#N` (stereo not drawn) [(52), 2-methylsulphinyl-3-cyano-5-(4-chlorobenzoyl)thiophene], for which the inhibition at 10 ppm with Pyrenophora graminea is 71%; with Pythium splendens it was ≥ 95%. The inhibition at 30 ppm in the series on Fusarium culmorum [2] and in the series on Rhizoctonia solani was ≥ 75% in each case.
As to `C[S+]([O-])c1sc(C#N)c(Cl)c1C#N` (stereo not drawn) [(3), 2-methylsulphinyl-3,5-dicyano-4-chlorothiophene], the “Percentage of emerged, healthy plants” value in the series with Fusarium culmorum [1] is 91%. The percentage damping-off in the series with Pythium spp. (setting [4]) was found to be 6%; with Pythium spp. (setting [5]), 5%. In addition, the inhibition at 3 ppm with Pyrenophora graminea stood at 57%. Also, the results for the inhibition at 10 ppm in the series on Pyrenophora graminea and with Pythium splendens were 80% and ≥ 95%, respectively. In addition, the inhibition at 30 ppm is ≥ 75% in the series with Fusarium culmorum [2], ≥ 85% with Leptosphaeria nodorum and ≥ 75% in the series with Rhizoctonia solani.
For the molecule `CC[S+]([O-])c1sc(C#N)c(Cl)c1C#N` (stereo not drawn) [(7), 2-ethylsulphinyl-3,5-dicyano-4-chlorothiophene], in the series with Fusarium culmorum [1], the “Percentage of emerged, healthy plants” value was found to be 98%. Also, the percentage damping-off in the series on Pythium spp. (setting [4]) and with Pythium spp. (setting [5]) was 17% each time. Moreover, the LD50 in series [3] is 400 mg/kg. Moreover, the inhibition at 3 ppm with Pyrenophora graminea stood at 59%. Besides, the inhibition at 10 ppm was 83% with Pyrenophora graminea and ≥ 95% in the series with Pythium splendens. The inhibition at 30 ppm is ≥ 75% in the series on Fusarium culmorum [2] and ≥ 85% with Leptosphaeria nodorum.
On to `CCCC[S+]([O-])c1sc(C(C)=O)c(Cl)c1C#N` (stereo not drawn) [(39), 2-n-butylsulphinyl 3-cyano-4-chloro-5-acetylthiophene], for which the figures for the inhibition at 10 ppm in the series on Pyrenophora graminea and with Pythium splendens were 81% and ≥ 95%, respectively. Also, the inhibition at 30 ppm with Fusarium culmorum [2] and in the series on Rhizoctonia solani was ≥ 75% each time.
On to `C[S+]([O-])c1sc(C(=O)c2ccc(Cl)cc2)c(Cl)c1C#N` (stereo not drawn) [(42), 2-methylsulphinyl-3-cyano-4-chloro-5-(4-chlorobenzoyl) thiophene], for which the figures for the inhibition at 30 ppm in the series with Fusarium culmorum [2], in the series on Leptosphaeria nodorum and with Rhizoctonia solani were ≥ 75%, ≥ 85% and ≥ 75%, respectively. Further, the inhibition at 10 ppm in the series with Pythium splendens is ≥ 95%.
Take `C[S+]([O-])c1sc(C#N)cc1C#N` (stereo not drawn) [(4), 2-methylsulphinyl-3,5-dicyanothiophene]: in the series on Fusarium culmorum [1], the “Percentage of emerged, healthy plants” value worked out at 90%. In addition, the percentage damping-off in the series with Pythium spp. (setting [4]) worked out at 10%; in the series with Pythium spp. (setting [5]), 9%. In addition, the inhibition at 3 ppm in the series on Pyrenophora graminea came to 66%. The values for the inhibition at 10 ppm with Pyrenophora graminea and in the series with Pythium splendens were 84% and ≥ 95%, respectively. The inhibition at 30 ppm in the series on Leptosphaeria nodorum is ≥ 85%; with Rhizoctonia solani, ≥ 75%.
On to `CSC(=C(C#N)c1ccc(Cl)cc1)[S+](C)[O-]` (stereo not drawn) [(19), α-cyanoβ-methylsulphinyl-β-methylthio-4-chlorostyrene], for which the inhibition at 30 ppm in the series with Fusarium culmorum [2] is ≥ 75%; with Leptosphaeria nodorum, ≥ 85%; with Rhizoctonia solani, ≥ 75%. The inhibition at 10 ppm in the series with Pythium splendens is ≥ 95%.
On to `CCCC[S+]([O-])c1sc(C#N)cc1C#N` (stereo not drawn) [(80)], for which the inhibition at 30 ppm with Fusarium culmorum [2] and with Rhizoctonia solani was ≥ 75% in each case. Also, the inhibition at 10 ppm in the series on Pythium splendens was ≥ 95%.
On to `CC(=O)c1sc([S+](C)[O-])c(C#N)c1Cl` (stereo not drawn) [(2), 2-methylsulphinyl-3-cyano-4-chloro-5-acetylthiophene], for which, in the series on Fusarium culmorum [1], the “Percentage of emerged, healthy plants” value is listed as 87%. Besides, the percentage damping-off in the series on Pythium spp. (setting [4]) is 7%; in the series with Pythium spp. (setting [5]), 6%. Also, the inhibition at 3 ppm in the series with Pyrenophora graminea is 64%. Besides, the inhibition at 10 ppm in the series with Pyrenophora graminea is 79%; in the series with Pythium splendens, ≥ 95%. Further, the inhibition at 30 ppm with Fusarium culmorum [2] was ≥ 75%; with Leptosphaeria nodorum, ≥ 85%; with Rhizoctonia solani, ≥ 75%.
As to `CC[S+]([O-])c1sc(C(C)=O)c(N)c1C#N` (stereo not drawn) [(10), 2-ethylsulphinyl-3-cyano-4-amino-5-acetylthiophene], the “Percentage of emerged, healthy plants” value in the series with Fusarium culmorum [1] is reported as 98%. Besides, the percentage damping-off was 10% with Pythium spp. (setting [4]) and 9% in the series with Pythium spp. (setting [5]). Moreover, the LD50 in series [3] came out at 141 mg/kg. The inhibition at 30 ppm in the series on Leptosphaeria nodorum is ≥ 85%. Besides, the inhibition at 10 ppm in the series on Pythium splendens was ≥ 95%.
In the case of `CC[S+]([O-])c1sc(C#N)c(OC)c1C#N` (stereo not drawn) [(13), 2-ethylsulphinyl-3,5-dicyano-4-methoxythiophene], the “Percentage of emerged, healthy plants” value in the series with Fusarium culmorum [1] turned out to be 90%. The percentage damping-off in the series on Pythium spp. (setting [4]) worked out at 3%; in the series with Pythium spp. (setting [5]), 1%. Moreover, the LD50 in series [3] was 130 mg/kg. The values for the inhibition at 30 ppm with Fusarium culmorum [2] and in the series with Leptosphaeria nodorum were ≥ 75% and ≥ 85%, respectively. In the series on Pythium splendens, the inhibition at 10 ppm was ≥ 95%.
